According to patent publication US20230212144A1, “5-MEMBERED HETEROARYL DERIVATIVE CONTAINING AT LEAST ONE N, AND PHARMACEUTICAL COMPOSITION FOR PREVENTING OR TREATING MENTAL DISORDERS, CONTAINING SAME AS ACTIVE INGREDIENT” (DAEGU-GYEONGBUK MEDICAL INNOVATION FOUNDATION, priority 2020, published 2023):

Experiments:
[1] = target: norepinephrine transporter (NET) (Homo sapiens, UniProt P23975); assay: Norepinephrine reuptake inhibition, [3H]-NE, cells transfected with NE transporter cDNA; conditions: for Triple reuptake inhibition (Ratio %) NET: compound 1 μM, relative to control without compound (100%), lower value = stronger inhibition
Sequence of norepinephrine transporter (NET) (P23975 whole entry, species assumed): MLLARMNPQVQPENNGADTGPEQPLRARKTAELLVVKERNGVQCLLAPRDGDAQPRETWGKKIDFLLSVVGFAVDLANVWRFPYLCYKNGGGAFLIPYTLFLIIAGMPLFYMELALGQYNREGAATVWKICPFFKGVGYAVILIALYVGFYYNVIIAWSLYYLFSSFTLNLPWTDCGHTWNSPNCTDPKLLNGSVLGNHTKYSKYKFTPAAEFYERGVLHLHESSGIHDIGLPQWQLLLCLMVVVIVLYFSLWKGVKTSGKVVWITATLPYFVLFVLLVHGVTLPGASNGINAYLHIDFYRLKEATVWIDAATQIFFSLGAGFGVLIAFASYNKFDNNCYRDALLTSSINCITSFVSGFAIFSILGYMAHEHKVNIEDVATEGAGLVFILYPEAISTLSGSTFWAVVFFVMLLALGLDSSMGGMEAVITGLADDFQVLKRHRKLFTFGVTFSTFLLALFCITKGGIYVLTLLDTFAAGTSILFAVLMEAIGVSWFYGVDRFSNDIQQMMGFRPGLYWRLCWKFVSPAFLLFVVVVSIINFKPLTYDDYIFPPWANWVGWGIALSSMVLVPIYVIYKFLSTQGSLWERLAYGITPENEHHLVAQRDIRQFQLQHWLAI
Method: (§1) After removing the medium, each compound of Examples or Comparative Examples diluted to 1 μM in uptake buffer was added to a concentration of 200 μL/well and cultured at 37° C. for 15 minutes. 100 μL of uptake buffer containing 20-30 nM [3H]-DA was added and cultured at 37° C. for 5 minutes. The reaction solution was quickly removed and washed three times with 1 mL ice-cold uptake buffer. After dissolving the resultant in 1% SDS (0.5 mL), the degree of binding of radioisotope-labeled dopamine to the transporter was measured.
(§2) For norepinephrine(NE) and serotonin(5-HT), the degree of binding of radioisotope-labeled norepinephrine or serotonin to the transporter was measured in the same manner as above, except that cells transfected with NE or 5-HT transporter cDNA were used and [3H]-NE or [3H]-5-HT was used as a substrate.
(§3) In addition, when evaluating the reuptake inhibitory effect on dopamine, norepinephrine, and serotonin, the same method was performed without treating each compound of Examples or Comparative Examples as a control, the degree of binding of radioisotope-labeled dopamine, norepinephrine, and serotonin to the transporter was measured, and by using this as a reference (100%), the triple reuptake inhibitory effect was evaluated as a relative ratio (Ratio %). That is, in the control group, the binding of dopamine, norepinephrine, and serotonin to transporters is not inhibited, but when each compound of Examples is treated and thus the binding is inhibited, the Ratio % value decreases.

[2] = target: dopamine transporter (DAT) (Homo sapiens, UniProt Q01959); assay: Dopamine reuptake inhibition, [3H]-DA, HEK-293 cells transfected with dopamine transporter cDNA; conditions: for Triple reuptake inhibition (Ratio %) DAT: compound 1 μM, relative to control without compound (100%), lower value = stronger inhibition
Sequence of dopamine transporter (DAT) (Q01959 whole entry, species assumed): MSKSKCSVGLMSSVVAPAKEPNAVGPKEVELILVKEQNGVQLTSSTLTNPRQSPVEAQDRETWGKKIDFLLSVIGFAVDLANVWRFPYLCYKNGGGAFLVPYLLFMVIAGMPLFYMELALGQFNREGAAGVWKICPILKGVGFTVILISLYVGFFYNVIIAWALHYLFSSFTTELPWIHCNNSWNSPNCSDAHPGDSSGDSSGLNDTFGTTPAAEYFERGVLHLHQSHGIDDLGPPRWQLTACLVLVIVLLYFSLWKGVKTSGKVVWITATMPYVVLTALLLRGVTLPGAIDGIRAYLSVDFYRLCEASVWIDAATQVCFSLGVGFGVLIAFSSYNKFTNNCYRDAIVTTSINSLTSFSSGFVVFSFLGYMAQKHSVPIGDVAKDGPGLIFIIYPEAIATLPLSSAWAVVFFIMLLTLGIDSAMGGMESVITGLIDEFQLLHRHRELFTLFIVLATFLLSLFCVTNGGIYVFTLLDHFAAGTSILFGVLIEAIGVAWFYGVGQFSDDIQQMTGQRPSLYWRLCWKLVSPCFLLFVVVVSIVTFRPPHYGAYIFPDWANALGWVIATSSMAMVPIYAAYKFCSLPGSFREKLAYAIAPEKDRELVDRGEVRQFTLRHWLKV
Method: as §1, §3

[3] = target: serotonin transporter (SERT) (Homo sapiens, UniProt P31645); assay: Serotonin reuptake inhibition, [3H]-5-HT, cells transfected with 5-HT transporter cDNA; conditions: for Triple reuptake inhibition (Ratio %) SERT: compound 1 μM, relative to control without compound (100%), lower value = stronger inhibition
Sequence of serotonin transporter (SERT) (P31645 whole entry, species assumed): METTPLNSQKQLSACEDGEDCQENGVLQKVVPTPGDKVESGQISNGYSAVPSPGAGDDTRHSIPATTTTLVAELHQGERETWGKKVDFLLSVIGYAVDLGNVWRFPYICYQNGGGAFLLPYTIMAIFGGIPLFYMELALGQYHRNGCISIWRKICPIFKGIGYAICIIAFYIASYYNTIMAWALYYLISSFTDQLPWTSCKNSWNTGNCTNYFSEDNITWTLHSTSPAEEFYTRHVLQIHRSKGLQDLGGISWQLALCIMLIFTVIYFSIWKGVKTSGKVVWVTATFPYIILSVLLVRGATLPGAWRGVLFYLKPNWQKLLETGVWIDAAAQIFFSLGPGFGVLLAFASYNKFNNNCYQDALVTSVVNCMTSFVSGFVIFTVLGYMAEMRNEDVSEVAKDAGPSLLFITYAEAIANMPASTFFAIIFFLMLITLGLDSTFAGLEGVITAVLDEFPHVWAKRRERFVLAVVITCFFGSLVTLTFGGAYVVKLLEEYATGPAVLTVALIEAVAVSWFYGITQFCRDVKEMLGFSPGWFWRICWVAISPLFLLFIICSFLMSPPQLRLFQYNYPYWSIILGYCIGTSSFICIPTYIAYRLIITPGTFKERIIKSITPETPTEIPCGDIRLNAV
Method: as §1, §2, §3

Structure (SMILES) | IC50 [1] [nM] | Triple reuptake inhibition (Ratio %) NET [1] [%] | IC50 [2] [nM] | Triple reuptake inhibition (Ratio %) DAT [2] [%] | IC50 [3] [nM] | Triple reuptake inhibition (Ratio %) SERT [3] [%]
COc1ccc2cc(-c3nnc(CN4CCC(Cc5ccccc5)CC4)[nH]3)[nH]c2c1 [Example 18, 2-(5-((4-benzylpiperidin-1-yl)methyl)-4H-1,2,4-triazol-3-yl)-6-methoxy-1H-indole] | 611 | 22.07 | 76 | 37.07 | 1580 | 66.40
Fc1ccc2[nH]c(-c3nnc(CN4CCC(c5c[nH]c6ccccc56)CC4)[nH]3)cc2c1 [Example 32, 2-(5-((4-(1H-indol-3-yl)piperidin-1-yl)methyl)-4H-1,2,4-triazol-3-yl)-5-fluoro-1H-indole] |  | 93.09 |  | 44.81 |  | 51.31
Fc1ccc2cc(-c3nnc(CN4CCC(Cc5ccccc5)CC4)[nH]3)[nH]c2c1 [Example 16, 2-(5-((4-benzylpiperidin-1-yl)methyl)-4H-1,2,4-triazol-3-yl)-6-fluoro-1H-indole] | 501 | 36.38 | 48 | 12.06 | 3650 | 80.93
c1ccc(CC2CCN(Cc3nnc(-c4cc5ccccc5[nH]4)[nH]3)CC2)cc1 [Example 1, 2-(5-((4-benzylpiperidin-1-yl)methyl)-4H-1,2,4-triazol-3-yl)-1H-indole] | 343 | 26.06 | 170 | 14.90 | 3730 | 91.56
Fc1ccc2[nH]c(-c3nnc(CN4CCC(Cc5ccccc5)CC4)[nH]3)cc2c1 [Example 2, 2-(5-((4-benzylpiperidin-1-yl)methyl)-4H-1,2,4-triazol-3-yl)-5-fluoro-1H-indole] | 14 | 2.58 | 83 | 3.94 | 5200 | 67.47
c1ccc(CC2CCN(Cc3nnc(-c4c[nH]c5ccccc45)[nH]3)CC2)cc1 [Example 22, 3-(5-((4-benzylpiperidin-1-yl)methyl)-4H-1,2,4-triazol-3-yl)-1H-indole] | 644 | 32.07 | 187 | 19.30 | 945 | 47.99
Cc1ccc2[nH]c(-c3nnc(CN4CCC(Cc5ccccc5)CC4)[nH]3)cc2c1 [Example 15, 2-(5-((4-benzylpiperidin-1-yl)methyl)-4H-1,2,4-triazol-3-yl)-5-methyl-1H-indole] | 1110 | 49.82 | 173 | 21.04 | 25000 | 83.60
CN(C)CCNC(=O)c1ccc(-c2nnc(CN3CCC(Cc4ccccc4)CC3)[nH]2)cc1 [Example 58, 4-(5-((4-benzylpiperidin-1-yl)methyl)-4H-1,2,4-triazol-3-yl)-N-(2-(dimethylamino)ethyl)benzoamide] |  | 76.51 |  | 77.67 |  | 50.24
Clc1ccc(CC2CCN(Cc3nnc(-c4cc5ccccc5[nH]4)[nH]3)CC2)cc1 [Example 7, 2-(5-((4-(4-chlorobenzyl)piperidin-1-yl)methyl)-4H-1,2,4-triazol-3-yl)-1H-indole] |  | 103.43 |  | 73.88 |  | 79.48
Clc1ccc(CC2CCN(Cc3nnc(-c4cc5ccccc5[nH]4)[nH]3)CC2)cc1Cl [Example 5, 2-(5-((4-(3,4-dichlorobenzyl)piperidin-1-yl)methyl)-4H-1,2,4-triazol-3-yl)-1H-indole] |  | 78.01 |  | 88.53 |  | 91.11
N#Cc1ccc2[nH]c(-c3nnc(CN4CCC(Cc5ccccc5)CC4)[nH]3)cc2c1 [Example 17, 2-(5-((4-benzylpiperidin-1-yl)methyl)-4H-1,2,4-triazol-3-yl)-1H-indol-5-carbonitrile] | 226 | 11.66 | 83 | 9.25 | 945 | 50.31
Fc1ccc2[nH]c(-c3nnc(CN4CCN(Cc5ccccc5)CC4)[nH]3)cc2c1 [Example 64, 2-(5-((4-benzylpiperazin-1-yl)methyl)-4H-1,2,4-triazol-3-yl)-5-fluoro-1H-indole] |  | 64.96 |  | 32.65 |  | 91.98

Second part, the compound after the results:

IC50 [1] [nM] | Triple reuptake inhibition (Ratio %) NET [1] [%] | IC50 [2] [nM] | Triple reuptake inhibition (Ratio %) DAT [2] [%] | IC50 [3] [nM] | Triple reuptake inhibition (Ratio %) SERT [3] [%] | Structure (SMILES)
816 | 53.00 | 203 | 13.85 | 2980 | 60.13 | N#Cc1ccc(-c2nnc(CN3CCC(Cc4ccccc4)CC3)[nH]2)cc1 [Example 46, 4-(5-((4-benzylpiperidin-1-yl)methyl)-4H-1,2,4-triazol-3-yl)benzonitrile]
348 | 23.52 | 134 | 20.20 | 2560 | 53.41 | COc1ccc(-c2nnc(CN3CCC(Cc4ccccc4)CC3)[nH]2)cc1OC [Example 48, 4-benzyl-1-((5-(3,4-dimethoxyphenyl)-4H-1,2,4-triazol-3-yl)methyl)piperidine]
327 | 27.25 | 221 | 26.54 | 1840 | 61.10 | COC(=O)c1ccc(-c2nnc(CN3CCC(Cc4ccccc4)CC3)[nH]2)cc1N [Example 63, methyl 2-amino-4-(5-((4-benzylpiperidin-1-yl)methyl)-4H-1,2,4-triazol-3-yl)benzoate]
176 | 27.46 | 236 | 20.84 | 5700 | 66.02 | FC(F)(F)c1ccc(-c2nnc(CN3CCC(Cc4ccccc4)CC3)[nH]2)cc1 [Example 50, 4-benzyl-1-((5-(4-(trifluoromethyl)phenyl)-4H-1,2,4-triazol-3-yl)methyl)piperidine]
 | 77.82 |  | 75.06 | 226 | 31.88 | COc1ccc2c(-c3nnc(CN4CCC(Cc5ccc(Cl)c(Cl)c5)CC4)[nH]3)c[nH]c2c1 [Example 59, 3-(5-((4-(3,4-dichlorobenzyl)piperidin-1-yl)methyl)-4H-1,2,4-triazol-3-yl)-6-methoxy-1H-indole]
4040 | 88.30 | 435 | 54.93 | 506 | 35.57 | Nc1ccc2[nH]cc(-c3nnc(CN4CCC(Cc5ccccc5)CC4)[nH]3)c2c1 [Example 43, 3-(5-((4-benzylpiperidin-1-yl)methyl)-4H-1,2,4-triazol-3-yl)-1H-indol-5-amine]
 | 67.11 |  | 28.61 |  | 92.53 | Clc1ccc2[nH]c(-c3nnc(CN4CCN(Cc5ccccc5)CC4)[nH]3)cc2c1 [Example 65, 2-(5-((4-benzylpiperazin-1-yl)methyl)-4H-1,2,4-triazol-3-yl)-5-chloro-1H-indole]
 | 28.99 |  | 52.90 |  | 77.61 | c1ccc(CC2CCN(Cc3nnc(-c4ccc(Oc5ccccc5)cc4)[nH]3)CC2)cc1 [Example 53, 4-benzyl-1-((5-(4-phenoxyphenyl)-4H-1,2,4-triazol-3-yl)methyl)piperidine]
 | 66.71 |  | 40.14 |  | 86.78 | FC(F)(F)c1cccc(-c2nnc(CN3CCC(Cc4ccccc4)CC3)[nH]2)c1 [Example 55, 4-benzyl-1-((5-(3-(trifluoromethyl)phenyl)-4H-1,2,4-triazol-3-yl)methyl)piperidine]
 | 56.36 |  | 75.88 |  | 38.36 | CC(=O)Nc1ccc(-c2nnc(CN3CCC(Cc4ccccc4)CC3)[nH]2)cc1 [Example 51, N-(4-(5-((4-benzylpiperidin-1-yl)methyl)-4H-1,2,4-triazol-3-yl)phenyl)acetamide]
640 | 39.66 | 1200 | 45.52 | 300 | 15.26 | COc1ccc2c(-c3nnc(CN4CCC(Cc5ccccc5)CC4)[nH]3)c[nH]c2c1 [Example 56, 3-(5-((4-benzylpiperidin-1-yl)methyl)-4H-1,2,4-triazol-3-yl)-6-methoxy-1H-indole]
 | 26.69 |  | 6.56 |  | 109.21 | Clc1cccc2[nH]c(-c3nnc(CN4CCC(Cc5ccccc5)CC4)[nH]3)cc12 [Example 24, 2-(5-((4-benzylpiperidin-1-yl)methyl)-4H-1,2,4-triazol-3-yl)-4-chloro-1H-indole]
